The values below come from patent EP4471049A1 (Zealand Pharma A/S, priority 2023, dated 2024).

A short description of data set [1]: Peptide stability in simulated intestinal fluid (SIF). Format: in vitro ADME. The conditions noted are these: 37 °C, pH 6.8, porcine pancreatin 10 g/L, 10 µM; for remaining at 1 h, 10 µM / remaining at 4 h, 10 µM: pig, simulated intestinal fluid (SIF) with porcine pancreatin; for remaining at 4 h, 10 µM: read-out: SIF (% remaining 4 h). Here is the method:
SGF was prepared by dissolving sodium chloride (0.2 g) in 50 mL of water. A volume of 0.7 mL of 10 M HCl was added to adjust the pH of the solution to 1.2 and the volume made up to 100 mL with water. […] SIF was prepared by dissolving monobasic potassium phosphate (0.68 g) in 50 mL of water and adjusting the pH to 6.8 with 1 M NaOH. The volume was subsequently made up to 100 mL with water. 200 mg porcine pancreatin (P1625, Sigma Aldrich) was gently dissolved into 20 mL preheated (37 °C) solution (10 g/L) immediately prior to the incubation.
The incubation was performed at 37 °C with gentle shaking. […] After the last timepoint, the sampling plate was mixed for 10 min on a shaking table and centrifuged 10 min at 2200 g. 70 µL resulting supernatant was diluted with 150 µL water, mixed and centrifugated before analysis by liquid chromatography high resolution mass spectrometry. […] Percent remaining at each timepoint was calculated relative to timepoint zero based on absolute peak areas.
Compounds with a SIF stability (after 4 h) above 70% are considered highly SIF stable.

The target of the next data set is T1, human IL-23R (Homo sapiens, UniProt Q5VWK5).
T1 sequence (Q5VWK5 22-629): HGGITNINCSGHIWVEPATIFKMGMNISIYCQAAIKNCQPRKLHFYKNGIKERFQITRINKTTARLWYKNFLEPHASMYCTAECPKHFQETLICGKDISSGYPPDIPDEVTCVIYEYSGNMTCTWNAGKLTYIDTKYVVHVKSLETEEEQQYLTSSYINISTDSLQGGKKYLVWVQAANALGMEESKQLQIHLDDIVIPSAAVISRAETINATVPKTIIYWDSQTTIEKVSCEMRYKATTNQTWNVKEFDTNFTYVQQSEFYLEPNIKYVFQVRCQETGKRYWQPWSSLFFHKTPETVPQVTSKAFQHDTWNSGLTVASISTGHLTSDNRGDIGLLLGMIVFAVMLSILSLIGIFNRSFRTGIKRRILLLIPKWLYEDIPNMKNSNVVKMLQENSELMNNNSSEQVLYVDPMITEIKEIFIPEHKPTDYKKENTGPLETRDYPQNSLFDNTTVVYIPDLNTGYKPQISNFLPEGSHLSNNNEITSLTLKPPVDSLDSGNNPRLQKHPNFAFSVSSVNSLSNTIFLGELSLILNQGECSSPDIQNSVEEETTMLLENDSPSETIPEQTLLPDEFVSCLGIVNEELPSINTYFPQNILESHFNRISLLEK
Put plainly: biochemical. The conditions noted are these: for Emax: read-out: % displacement (hIL-23R binding). The source says: The compound binding affinity for IL-23R was estimated by the ability of compounds to displace a fluorophore-labelled reference compound from the human IL-23R. The assay principle relies on Bioluminescence Resonance Energy Transfer (BRET) between a fluorophore-labelled reference compound binding to the IL-23R part of a fusion protein consisting of the IL-23R fused to a Nanoluc luciferase enzyme (Nanoluc). The Nanoluc is placed in the N-terminus in close proximity to the binding domain of the ligand. Upon close proximity between the fluorophore of the fluorophore-labelled compound and the Nanoluc of the fusion protein, bioluminescence energy generated from conversion of a Nanoluc substrate, is transferred to the fluorophore resulting in an increase in BRET. In presence of an unlabelled compound, the unlabelled compound displaces the fluorophore-labelled peptide from its binding site resulting in a decrease in BRET. The concentration for which half of the fluorophore-labelled peptide is displaced by the unlabelled compound depends on the affinity of the compound for the IL-23R, and is termed the IC50 concentration.
The plasmid also contained a gene to confer resistance for the antibiotic hygromycin. A cell line stably expressing the Nluc-IL23R fusion protein was generated by transfection of HEK293 cells with the expression plasmid and selected with hygromycin for 3 weeks in Growth medium consisting of DMEM w/ Glutamax-I containing, 10% V/V FBS, 1% V/V P/S, 1 mM Sodium Pyruvate, and 1X NEAA, and 0.3 mg/mL hygromycin. The remaining cells were propagated and considered a stable expressing Nluc-IL23R fusion protein pool clone.
Cells expressing the Nluc-IL23R fusion protein were expanded in Growth medium and membranes prepared by homogenization of a cell pellet from 18 T175 flasks (4 °C in subsequent steps). The cell pellet was lysed Tris 10 mM, 7.5, 1 mM EDTA and protease inhibitors (Complete, Roche) and homogenized using a 15 mL glass-dounce by 50 strokes. The homogenate was spun at spin @1500 rpm for 10 min, the supernatant transferred to SV-34 tubes and spun at 40000g for 20 min at 4 °C to pellet the crude membranes. The supernatant was then removed, the pellet resuspended in 5 mL buffer containing 50 mM HEPES pH 7.4, 5 mM EGTA, and 5 mM MgCl2, and homogenized. Aliquots of the resuspended and homogenized membranes containing the Nluc-IL23R fusion protein were stored at -80 °C until use.
The plate was sealed with light impermeable plate seals, and incubated on an orbital shaker 400 rpm for 2 hours at room temperature. To determine the BRET ratio, the plate seal was removed and 25 µL of the Nanoluc substrate (Promega N1572) diluted 1:500 was added to each well and incubated for 1-2 minutes on an orbital shaker at 400 rpm. […] The BRET ratio was calculated as the fluorescence from the TAMRA/nanoluc bioluminescence.
Compound potency (IC50) and maximal displacement (% displacement) were estimated by computer-aided curve fitting using a 4-parameter logistic (4PL) non-linear model. […]
In this application, the inventors provide the data as IC50 values.

*1 amine or outer side, *2 acyl side, *3 side chain or, on linkers, in order; H or OH if unused. Where a SMILES comes first, the peptide text is derived from it. Bridges are numbered along the chain shown (N, C = ends). [ ]: non-standard residue; d: D form. 2Nal = N[C@@H](Cc1ccc2ccccc2c1)C(=O)O; AEF = NCCOc1ccc(C[C@H](N)C(=O)O)cc1; X1 = O=C(Cc1ccc(CN[*:1])cc1)[*:2]; 3Pal = N[C@@H](Cc1cccnc1)C(=O)O; Cit = NC(=O)NCCC[C@H](N)C(=O)O; αMeL = CC(C)C[C@](C)(N)C(=O)O; Orn = NCCC[C@H](N)C(=O)O; Dab = NCC[C@H](N)C(=O)O

As to `CC(C)C[C@@H]1NC(=O)[C@H](Cc2c[nH]c3ccccc23)NC(=O)[C@H](Cc2c[nH]c3ccccc23)NC(=O)[C@@H]2CSCC(=O)CSC[C@H](NC(=O)[C@H]([C@@H](C)O)NC(=O)[C@@H](NC(=O)CN)CSCC(=O)CSC[C@@H](C(=O)N[C@@H](CO)C(N)=O)NC1=O)C(=O)N[C@@H](Cc1c[nH]c3ccccc13)C(=O)N[C@@H](CCC(=O)O)C(=O)N2` (single isomer, unassigned) [I1 (isomer 3), H-GC(1a)TC(2a)WEC(2a)WWLC(1a)S-[NH2], reference compound], in data set [1], the “SIF (% remaining 1 h)” value was 0% and the “SIF (% remaining 4 h)” value was 0%.

As to `CSCC[C@H](NC(=O)[C@@H]1CSCC(=O)CSC[C@H](NC(=O)[C@@H](N)CCC(=O)O)C(=O)N[C@@H](Cc2c[nH]c3ccccc23)C(=O)N[C@@H](CC(C)C)C(=O)N[C@H]2CSCC(=O)CSC[C@H](NC(=O)[C@H](CC(N)=O)NC(=O)[C@H](CCCNC(=N)N)NC(=O)[C@H](Cc3ccc(O)cc3)NC(=O)[C@H](Cc3ccc(O)cc3)NC2=O)C(=O)N[C@@H](CC(N)=O)C(=O)N1)C(N)=O` (single isomer, unassigned) [I4 (isomer 3), H-EC(4a)WLC(5a)YYRNC(5a)NC(4a)M-[NH2], reference compound], in data set [1], the “SIF (% remaining 1 h)” value was 0% and the “SIF (% remaining 4 h)” value is 0%.

A word on the IC50: it is the concentration needed to halve the response being measured. Read a low IC50 as greater potency. Turning to `CNC(=O)[C@H](Cc1cccnc1)NC(=O)[C@H](CCN)NC(=O)[C@@H]1CCC(=O)NCc2ccc(cc2)CC(=O)N[C@@H](C)C(=O)N[C@H]2CCC(=O)NCC[C@H](NC(=O)[C@H](CCC(N)=O)NC(=O)[C@H](Cc3c[nH]c4ccccc34)NC2=O)C(=O)N[C@@H](Cc2ccc(OCCN)cc2)C(=O)N[C@@H](Cc2ccc3ccccc3c2)C(=O)N[C@@](C)(CC(C)C)C(=O)N1` [Compound 20, [4-Aminomethyl-phenylacetyl](1c)*AE(2c)WQ[Dab](2c)[Y(2-aminoethoxy)][2-Nal][2-Me-Leu]E(1c)[Dab][3-(3-Pyridyl)-Ala]-[NHMe]], in data set [1], the fraction remaining at 1 h, 10 µM was 109% and the share remaining at 4 h, 10 µM was 90%. Further, at human IL-23R, the “% displacement (hIL-23R binding)” value is on record as 97% and the IC50 was 0.012 nM.

In the case of `CNC(=O)[C@H](Cc1cccnc1)NC(=O)[C@H](CCN)NC(=O)[C@@H]1CCC(=O)NCc2ccc(cc2)CC(=O)N[C@@H](Cc2ccccc2)C(=O)N[C@H]2CCC(=O)NCC[C@H](NC(=O)[C@H](CCC(N)=O)NC(=O)[C@H](Cc3c[nH]c4ccccc34)NC2=O)C(=O)N[C@@H](Cc2ccc(OCCN)cc2)C(=O)N[C@@H](Cc2ccc3ccccc3c2)C(=O)N[C@@](C)(CC(C)C)C(=O)N1` [Compound 21, [4-Aminomethyl-phenylacetyl](1c)*FE(2c)WQ[Dab](2c)[Y(2-aminoethoxy)][2-Nal][2-Me-Leu]E(1c)[Dab][3-(3-Pyridyl)-Ala]-[NHMe]] ([X1]FEWQ[Dab][AEF][2Nal][αMeL]E[Dab][3Pal]-NHMe; lactam 3-6, N-10), the share remaining at 1 h, 10 µM in data set [1] was 53%. On human IL-23R, the IC50 was 0.014 nM and the Emax was 95%.

`CNC(=O)[C@H](Cc1cccnc1)NC(=O)[C@H](CCN)NC(=O)[C@@H]1CCC(=O)NCc2ccc(cc2)CC(=O)N[C@@H](CO)C(=O)N[C@H]2CCC(=O)NCC[C@H](NC(=O)[C@H](CCCNC(N)=O)NC(=O)[C@H](Cc3c[nH]c4ccccc34)NC2=O)C(=O)N[C@@H](Cc2ccc(OCCN)cc2)C(=O)N[C@@H](Cc2ccc3ccccc3c2)C(=O)N[C@@](C)(CC(C)C)C(=O)N1` [Compound 26, [4-Aminomethyl-phenylacetyl](1c)*SE(2c)W[Cit][Dab](2c)[Y(2-aminoethoxy)][2-Nal][2-Me-Leu]E(1c)[Dab][3-(3-Pyridyl)-Ala]-[NHMe]] ([X1]SEW[Cit][Dab][AEF][2Nal][αMeL]E[Dab][3Pal]-NHMe; lactam 3-6, N-10): the amount remaining at 4 h, 10 µM in data set [1] is 91%. Further, on human IL-23R, half-maximal inhibition (IC50) was put at 0.015 nM and the Emax came to 95%.

In the case of `CNC(=O)[C@H](Cc1cccnc1)NC(=O)[C@H](CCN)NC(=O)[C@@H]1CCC(=O)NCc2ccc(cc2)CC(=O)N[C@@H](CO)C(=O)N[C@H]2CCC(=O)NCC[C@H](NC(=O)[C@H](CCCN)NC(=O)[C@H](Cc3c[nH]c4ccccc34)NC2=O)C(=O)N[C@@H](Cc2ccc(OCCN)cc2)C(=O)N[C@@H](Cc2ccc3ccccc3c2)C(=O)N[C@@](C)(CC(C)C)C(=O)N1` [Compound 28, [4-Aminomethyl-phenylacetyl](1c)*SE(2c)W[Orn][Dab](2c)[Y(2-aminoethoxy)][2-Nal][2-Me-Leu]E(1c)[Dab][3-(3-Pyridyl)-Ala]-[NHMe]] ([X1]SEW[Orn][Dab][AEF][2Nal][αMeL]E[Dab][3Pal]-NHMe; lactam 3-6, N-10), the amount remaining at 4 h, 10 µM in data set [1] was 110%. For the same compound, at human IL-23R, the “% displacement (hIL-23R binding)” value turned out to be 97%.

With `CNC(=O)CC[C@@H]1NC(=O)[C@H](Cc2c[nH]c3ccccc23)NC(=O)[C@@H]2CCC(=O)NCC[C@H](NC1=O)C(=O)N[C@@H](Cc1ccc(OCCN)cc1)C(=O)N[C@@H](Cc1ccc3ccccc3c1)C(=O)N[C@@](C)(CC(C)C)C(=O)N[C@H](C(=O)N[C@@H](CCN)C(=O)N[C@@H](Cc1cccnc1)C(=O)NC)CCC(=O)NCc1ccc(cc1)CC(=O)N[C@@H](CO)C(=O)N2` [Compound 29, [4-Aminomethyl-phenylacetyl](1c)*SE(2c)W[Q(Me)][Dab](2c)[Y(2-aminoethoxy)][2-Nal][2-Me-Leu]E(1c)[Dab][3-(3-Pyridyl)-Ala]-[NHMe]] ([X1]SEWE(NHMe)[Dab][AEF][2Nal][αMeL]E[Dab][3Pal]-NHMe; lactam 3-6, N-10), the fraction remaining at 4 h, 10 µM in data set [1] is 92%. The “% displacement (hIL-23R binding)” value on human IL-23R is listed as 96%.

Regarding `CNC(=O)[C@H](Cc1cccnc1)NC(=O)[C@H](CCN)NC(=O)[C@@H]1CCC(=O)NCc2ccc(cc2)CC(=O)N[C@@H](CO)C(=O)N[C@H]2CCC(=O)NCC[C@H](NC(=O)[C@H](CCC(=O)N(C)C)NC(=O)[C@H](Cc3c[nH]c4ccccc34)NC2=O)C(=O)N[C@@H](Cc2ccc(OCCN)cc2)C(=O)N[C@@H](Cc2ccc3ccccc3c2)C(=O)N[C@@](C)(CC(C)C)C(=O)N1` [Compound 30, [4-Aminomethyl-phenylacetyl](1c)*SE(2c)W[Q(2Me)][Dab](2c)[Y(2-aminoethoxy)][2-Nal][2-Me-Leu]E(1c)[Dab][3-(3-Pyridyl)-Ala]-[NHMe]] ([X1]SEWE(NMe2)[Dab][AEF][2Nal][αMeL]E[Dab][3Pal]-NHMe; lactam 3-6, N-10), the share remaining at 4 h, 10 µM in data set [1] was 94%. In addition, on human IL-23R, the “% displacement (hIL-23R binding)” value was found to be 104% and the IC50 is 0.018 nM.
